Source: patent US20190021992A1, “NEW IMPROVED COMPOSITION COMPRISING AT LEAST ONE CADOTRIL” (Johnson & Johnson Consumer Inc., priority 2016, published 2019)
Values joined by “and” are separate entries in the source; they are usually repeats but may differ in a detail not shown here. Equal values may be shown once.

Assay: Oral administration pharmacokinetic studies in rats (thiorphan plasma concentration, HPLC)
Format: in vivo, Sprague Dawley rats
Description: Formulations were administered to rats at doses expected to be pharmacologically effective for estimation of the bioavailability. Blood was drawn at specified time points and plasma concentration of thiorphan was assessed.
Animals: Sprague Dawley rats, approximate weight 250 g. Animal preparation: Deprived of food (but not of water) during 18 h preceding dosing. Mode of administration: thiorphan (i.v.) and racecadotril (p.o.) by oral gavage. Blood sampling volume: 300 μl/per sample.
Blood was drawn at specified time points. Plasma was immediately frozen and kept at −80° C. for assessment of thiorphan concentration by HPLC.
Formulation nr. 8 (example 2) was administered to rats p.o. at dose of 20 mg/kg. One group of rats was given thiorphan i.v. at a dose of 13.4 mg/kg as a reference. […]

[1] = individual rats, thiorphan i.v. 13.4 mg/kg, 13.4 mg/kg

AUC(0-inf) (Sprague Dawley, rat, plasma, iv, 13.4 mg/kg, average of 3 rats, thiorphan i.v. 13.4 mg/kg, read-out: AUCinf (thiorphan), Avg): 1710 ng·h/mL | Cmax (Sprague Dawley, rat, plasma, iv, 13.4 mg/kg, individual rats, thiorphan i.v. 13.4 mg/kg): 15900 ng/mL | Tmax (Sprague Dawley, rat, plasma, iv, individual rats, thiorphan i.v. 13.4 mg/kg): 1.98 min | Cmax (thiorphan) [1]: 17649 ng/mL and 21914 ng/mL | T_half (thiorphan) [1]: 1.31 h and 0.57 h and 1.81 h | Rel BA (%) (thiorphan i.v. 13.4 mg/kg (reference)): 100%
Structure (SMILES): O=C(O)CNC(=O)C(CS)Cc1ccccc1 (centres unmarked) [Thiorphan, thiorphan]
AUCinf (thiorphan) [1]: 2403 ng·h/mL and 1857 ng·h/mL and 871 ng·h/mL | AUCt (thiorphan) [1]: 2392 ng·h/mL and 1843 ng·h/mL and 857 ng·h/mL
